In patent US10751396B2, “Early hyperlipidemia promotes endothelial activation via a caspase-1-sirtuin 1 pathway” (Temple University—Of The Commonwealth System of Higher …, priority 2015, dated 2020):
Blank lines part the entries; values can stand above or below the molecule they belong to. Residues, ends and D or L forms follow the SMILES beside them. *: point of attachment. Cbz = O=C(OCc1ccccc1)*

Experiments:
Type in all cases: cell-based, human
Sirt1 = Sirt1 cleavage in oxLDL-treated HAECs by Western blot; conditions: agent added 1 hour before oxLDL (100 μg/mL, 24 hours)
From the text: FIG. 8, comprising FIG. 8A through FIG. 8C, depicts experimental results showing hyperlipidemia/dyslipidemia decreases sirtuin 1 (Sirt1) expression in ApoE^−/− mouse aorta and induces Sirt1 cleavage in human aortic endothelial cells (ECs) through caspase-1 (casp-1) activation. FIG. 8A depicts Casp-1 deficiency results in Sirt1 accumulation in mouse aorta in ApoE^−/−/Casp-1^−/− mice. ApoE^−/− mice and ApoE^−/−/Casp-1^−/− mice were fed with a high fat (HF) diet for 3 weeks. Mouse aortic tissues were collected for uncleaved Sirt1 protein expression analysis by Western blot with the specific antibody (left panel). The quantification of Sirt1 expression in the Western blot was presented after normalized with the expression of β-actin in the same sample (right panel). FIG. 8B depicts oxidized low-density lipoprotein (OxLDL) induces Sirt1 cleavage in human aortic endothelial cells (HAECs). HAECs were cultured and treated with oxLDL (100 μg/mL) for 24 hours. […] The protein lysates were collected, and cleaved-Sirt1 expression was determined by Western blot with anti-Sirt1 antibody. The relative changes of Sirt1 expression normalized by β-actin (ratios) were calculated based on the ratios of Sirt1 expression levels in treated samples over that in nontreated samples. […]

caspase-1 = experiment: Caspase-1 activity assay (FAM-YVAD-FMK, flow cytometry) in HAECs; conditions: for oxLDL-induced caspase-1 activation with ROS inhibitors: Allopurinol 1 mmol/L, Apocynin 100 μM added 1 hour before oxLDL (100 μg/mL) 6 hours
Description: (§1) Active caspase-1 level was determined with APO LOGIX kit (Cell Tech., Mountain View, Calif.). The kit contains a carboxyfluorescein (FAM) [Excitation/Emission (nm):490/520]-labeled peptide fluoromethyl ketone (FMK) caspase-1 inhibitor (FAM-YVAD-FMK), which irreversibly binds to active caspase-1. All procedures were performed according to the manufacturer's instruction. Briefly, HAECs (≤passage 9) were cultured in 6-well plates and serum starved overnight to quiescent the cells before treatment. Next day, HAECs were treated with indicated stimuli for 6 hr. Cells were then digested by trypsin-EDTA and suspended at 1×10^6 cells/ml. 150 μl of cell suspension were incubated at 37° C. with 1× FAM-YVAD-FMK for 1 hour then washed with 1× washing buffer. Unfixed caspase-1 stained cells were then incubated with 7-aminoactinomycin D (7-AAD; cell membrane integrity marker) (BD Pharmingen, San Diego, Calif.) for no more than 10 min before analysis. The Calibur flow cytometer (BD Biosciences, San Jose, Calif.) was used to determine caspase-1 active (Caspase-1^+) and 7-AAD^+ cells. Data were analyzed with the FlowJo software (Tree Star, Ashland, Oreg.).
Active caspase-1 levels were determined with an APO LOGIX kit (Cell Technology, Mountain View, Calif.). The kit contained a carboxyfluorescein (FAM) (excitation/emission (nm): 490/520)-labeled peptide fluoromethyl ketone (FMK) caspase-1 inhibitor (FAM-YVAD-FMK), which irreversibly binds to active caspase-1. The procedures were performed according to the manufacturer's instructions. HAECs were cultured in 6-well dishes and serum-starved overnight to ensure quiescence of the cells before treatment. The next day, HAECs were treated with the indicated stimuli for 6 h. Cells were harvested and suspended at 1×10^6 cells/ml. The cell suspension (150 μl) was incubated in 37° C. with 1× FAM-YVAD-FMK for 1 h. After being washed with 1× washing buffer, the cells were fixed with fixative buffer and stored in 4° C. for up to 24 h. To determine the cell membrane integrity, the unfixed cells were stained with 7-AAD (Pharmingen) (0.25 μg/test) and incubated for no more than 10 min before analysis.
All flow cytometric data were analyzed by using the FlowJo software (Tree Star, Ashland, Oreg.). The uncompensated data were collected from the flow cytometer (either FACSCalibur flow cytometer or LSRII flow cytometer; BD Biosciences). Forward and side scatter gates were used to select live cell populations from clumps and debris. The positive gating was determined by its matched IgG control, and single staining was used to determine the compensation parameter. Different gates were established to analyze the data according to cell size as described in our figures.

[1] = test system: alpha actin and calponin RNA transcripts in HAVSMCs; experiment: Contractile marker RNA in HAVSMCs exposed to uremic serum (quantitative RT-PCR); conditions: HAVSMC, 10% pooled CKD sera 24 hours, compared to non-treated controls
Description: FIG. 29 depicts experimental results showing the exposure of human aortic vascular smooth muscle cells (HAVSMCs) to uremic serum decreases the expression of contractile marker RNA transcripts, which is reversed by the inhibition of caspase-1. HAVSMCs were grown to sub-confluence and were serum starved for 24 hours and exposed to 10% pooled uremic sera from CKD patients (CKD PS) with and without Caspase-1 Inhibitor (Casp1 inh) for another 24 hours. The RNA was extracted, was reverse transcribed into cDNA, and the expression of smooth muscle contractile marker RNA transcripts (alpha actin and calponin) was measured by quantitative RT-PCR using the Applied Biosystems 7500, Taqman primers and probes. The relative quantification of gene RNA expression is presented after being normalized with the expression of a house-keeping gene. *P value<0.005.
Blood samples were obtained from 6 healthy donors with normal kidney function and 20 patients with end stage renal disease who were on hemodialysis. […]
Total RNA from cultured cells was extracted using the RNeasy kit (Qiagen, Valencia, Calif.), and cDNA was synthesized with the VILO first-strand synthesis system (Invitrogen, Grand Island, N.Y.). […] Relative gene expression levels were calculated after normalization with the internal control eukaryotic 18S gene using the 2^−deltadeltaCt method, where Ct is the threshold value.

HAECs = experiment: Caspase-1/7-AAD co-staining for pyroptosis in HAECs; conditions: HAECs, 6-hour stimulation; oxLDL 100 μg/mL, LPA 100 μM, LPC 15 μM
Description: FIG. 7, comprising FIG. 7A through FIG. 7D, depicts experimental results showing Oxidized low-density lipoprotein (oxLDL) and its components induce caspase-1 (casp-1) activation in human aortic endothelial cells (HAECs) via a reactive oxygen species (ROS)-mediated p-athway. FIG. 7A depicts pyroptotic cell death in HAECs caused by activation of casp-1 induced by oxLDL and its components. HAECs were cultured and treated with low-density lipoprotein (LDL; 100 μg/mL), oxLDL (100 μg/mL), oxLDL-derivatives lysophosphatidic acid (LPA, 100 μM), or lysophosphatidylcholine (LPC, 15 μM) as indicated for 6 hours. Casp-1 activity was determined by a commercial kit, and 7-aminoactinomycin D (7-AAD) fluorescence dye was used to determine the cell membrane integrity. Casp-1^+/7-AAD^+ cells were gated as pyrototic cells (Q3), casp-1^+ single positive cells (Q2) were gated as inflammatory cells, and 7-AAD^+ single positive cells (Q4) were gated as necrotic cells. FIG. 7B depicts ROS levels in pyroptotic cells. ROS levels were determined by dihydroethidium (DHE) fluorescence dye staining, and the mean fluorescence intensity (MFI) of DHE^+ cell fraction was determined. […] Allopurinol (1 mmol/L) and Apocynin (100 μM) were added 1 hour before oxLDL treatment. HAECs were then treated with oxLDL (100 μg/mL) for 6 hours and stained for caspase-1 activity. FIG. 7D depicts mRNA upregulation of inflammasome components, including NLRP1 (Nod-like receptor protein 1), NLRP3 (Nod-like receptor 3), PYCARD (or ASC, inflammasome adaptor apoptosis-associated speck-like protein containing a CARD), caspase-1, and IL-1β (interleukin-1β) in HAECs treated with oxLDL. Data are expressed as mean±SE. *P<0.05, changes with statistical significance.
as §1
Active caspase-1 levels were determined with an APO LOGIX kit (Cell Technology, Mountain View, Calif.). The kit contained a carboxyfluorescein (FAM) (excitation/emission (nm): 490/520)-labeled peptide fluoromethyl ketone (FMK) caspase-1 inhibitor (FAM-YVAD-FMK), which irreversibly binds to active caspase-1. The procedures were performed according to the manufacturer's instructions. HAECs were cultured in 6-well dishes and serum-starved overnight to ensure quiescence of the cells before treatment. The next day, HAECs were treated with the indicated stimuli for 6 h. Cells were harvested and suspended at 1×10^6 cells/ml. […]

Molecule: CC(C)C[C@@H](C=O)NC(=O)[C@H](CC(C)C)NC(=O)[C@H](CC(C)C)NC(=O)OCc1ccccc1 [MG-132] (Cbz-Leu-Leu-Leu-aldehyde)
oxLDL-induced Sirt1 cleavage with inhibitor (Sirt1): inhibited

Molecule: COc1cc(C(C)=O)ccc1O [Apocynin]
oxLDL-induced caspase-1 activation with ROS inhibitors (caspase-1): attenuation of oxLDL-induced caspase-1 activation

Molecule: COC(=O)C[C@H](NC(=O)[C@H](C)NC(=O)[C@@H](NC(=O)[C@H](Cc1ccc(O)cc1)NC(=O)OCc1ccccc1)C(C)C)C(=O)CF [Z-YVAD-FMK]
relative quantification of alpha-actin RNA [1]: 0.588
relative quantification of calponin RNA [1]: 0.601

Molecule: RQIKIWFQNRRMKWKKGYRDNLLFGAEIITNGFHSC (N-terminal protein transduction sequence; listed as Homo sapiens) [NC-Sirt1]
oxLDL-induced Sirt1 cleavage with inhibitor (Sirt1): dose-dependently decreases

caspase-1 activation after VEGFR-2 inhibition (caspase-1; HAECs pretreated with SU1498, then LPC (30 μM) 6 h after overnight serum starvation): increases caspase-1 activation
Molecule: CC(C)c1cc(/C=C(\C#N)C(=O)NCCCc2ccccc2)cc(C(C)C)c1O [SU1498]

caspase-1 activation in larger size of HAECs (caspase-1; 6 h, oxLDL (100 μM), LPA (30 μM), LPC (30 μM), large FSC gate): 54.4%
caspase-1 activation in smaller size of HAECs (caspase-1; 6 h, oxLDL (100 μM), LPA (30 μM), LPC (30 μM), small FSC gate): 25.2%
Molecule: mono-acylsn-glycero-3-phosphate [LPA]
induction of inflammation, pyroptosis and necrosis (caspase-1/7-AAD gating) (HAECs): induced inflammation, inflammatory cell death (pyroptosis), and necrosis

Molecule: Oc1ncnc2[nH]ncc12 [Allopurinol]
oxLDL-induced caspase-1 activation with ROS inhibitors (caspase-1): attenuation of oxLDL-induced caspase-1 activation
